Counter-ions that a name gives are not always drawn.
Target: ATM (Homo sapiens (Human), UniProt Q13315)
Test: ATM in Cell Western Assay (pKAP1 in etoposide-treated MCF-7 cells)
Type: cell-based
Conditions: MCF-7 cells, etoposide 100 μM, 1 hr, pKAP1 readout
How it was run: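 After paraformaldehyde fixation and Triton X-100 permeabilization, immunostained plates were read by infrared scanning (ODYSSEY CLx). Compound was given as 10 doses, 3-fold dilutions from a 1 μM final top concentration.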

Sequence of ATM (Q13315 whole entry): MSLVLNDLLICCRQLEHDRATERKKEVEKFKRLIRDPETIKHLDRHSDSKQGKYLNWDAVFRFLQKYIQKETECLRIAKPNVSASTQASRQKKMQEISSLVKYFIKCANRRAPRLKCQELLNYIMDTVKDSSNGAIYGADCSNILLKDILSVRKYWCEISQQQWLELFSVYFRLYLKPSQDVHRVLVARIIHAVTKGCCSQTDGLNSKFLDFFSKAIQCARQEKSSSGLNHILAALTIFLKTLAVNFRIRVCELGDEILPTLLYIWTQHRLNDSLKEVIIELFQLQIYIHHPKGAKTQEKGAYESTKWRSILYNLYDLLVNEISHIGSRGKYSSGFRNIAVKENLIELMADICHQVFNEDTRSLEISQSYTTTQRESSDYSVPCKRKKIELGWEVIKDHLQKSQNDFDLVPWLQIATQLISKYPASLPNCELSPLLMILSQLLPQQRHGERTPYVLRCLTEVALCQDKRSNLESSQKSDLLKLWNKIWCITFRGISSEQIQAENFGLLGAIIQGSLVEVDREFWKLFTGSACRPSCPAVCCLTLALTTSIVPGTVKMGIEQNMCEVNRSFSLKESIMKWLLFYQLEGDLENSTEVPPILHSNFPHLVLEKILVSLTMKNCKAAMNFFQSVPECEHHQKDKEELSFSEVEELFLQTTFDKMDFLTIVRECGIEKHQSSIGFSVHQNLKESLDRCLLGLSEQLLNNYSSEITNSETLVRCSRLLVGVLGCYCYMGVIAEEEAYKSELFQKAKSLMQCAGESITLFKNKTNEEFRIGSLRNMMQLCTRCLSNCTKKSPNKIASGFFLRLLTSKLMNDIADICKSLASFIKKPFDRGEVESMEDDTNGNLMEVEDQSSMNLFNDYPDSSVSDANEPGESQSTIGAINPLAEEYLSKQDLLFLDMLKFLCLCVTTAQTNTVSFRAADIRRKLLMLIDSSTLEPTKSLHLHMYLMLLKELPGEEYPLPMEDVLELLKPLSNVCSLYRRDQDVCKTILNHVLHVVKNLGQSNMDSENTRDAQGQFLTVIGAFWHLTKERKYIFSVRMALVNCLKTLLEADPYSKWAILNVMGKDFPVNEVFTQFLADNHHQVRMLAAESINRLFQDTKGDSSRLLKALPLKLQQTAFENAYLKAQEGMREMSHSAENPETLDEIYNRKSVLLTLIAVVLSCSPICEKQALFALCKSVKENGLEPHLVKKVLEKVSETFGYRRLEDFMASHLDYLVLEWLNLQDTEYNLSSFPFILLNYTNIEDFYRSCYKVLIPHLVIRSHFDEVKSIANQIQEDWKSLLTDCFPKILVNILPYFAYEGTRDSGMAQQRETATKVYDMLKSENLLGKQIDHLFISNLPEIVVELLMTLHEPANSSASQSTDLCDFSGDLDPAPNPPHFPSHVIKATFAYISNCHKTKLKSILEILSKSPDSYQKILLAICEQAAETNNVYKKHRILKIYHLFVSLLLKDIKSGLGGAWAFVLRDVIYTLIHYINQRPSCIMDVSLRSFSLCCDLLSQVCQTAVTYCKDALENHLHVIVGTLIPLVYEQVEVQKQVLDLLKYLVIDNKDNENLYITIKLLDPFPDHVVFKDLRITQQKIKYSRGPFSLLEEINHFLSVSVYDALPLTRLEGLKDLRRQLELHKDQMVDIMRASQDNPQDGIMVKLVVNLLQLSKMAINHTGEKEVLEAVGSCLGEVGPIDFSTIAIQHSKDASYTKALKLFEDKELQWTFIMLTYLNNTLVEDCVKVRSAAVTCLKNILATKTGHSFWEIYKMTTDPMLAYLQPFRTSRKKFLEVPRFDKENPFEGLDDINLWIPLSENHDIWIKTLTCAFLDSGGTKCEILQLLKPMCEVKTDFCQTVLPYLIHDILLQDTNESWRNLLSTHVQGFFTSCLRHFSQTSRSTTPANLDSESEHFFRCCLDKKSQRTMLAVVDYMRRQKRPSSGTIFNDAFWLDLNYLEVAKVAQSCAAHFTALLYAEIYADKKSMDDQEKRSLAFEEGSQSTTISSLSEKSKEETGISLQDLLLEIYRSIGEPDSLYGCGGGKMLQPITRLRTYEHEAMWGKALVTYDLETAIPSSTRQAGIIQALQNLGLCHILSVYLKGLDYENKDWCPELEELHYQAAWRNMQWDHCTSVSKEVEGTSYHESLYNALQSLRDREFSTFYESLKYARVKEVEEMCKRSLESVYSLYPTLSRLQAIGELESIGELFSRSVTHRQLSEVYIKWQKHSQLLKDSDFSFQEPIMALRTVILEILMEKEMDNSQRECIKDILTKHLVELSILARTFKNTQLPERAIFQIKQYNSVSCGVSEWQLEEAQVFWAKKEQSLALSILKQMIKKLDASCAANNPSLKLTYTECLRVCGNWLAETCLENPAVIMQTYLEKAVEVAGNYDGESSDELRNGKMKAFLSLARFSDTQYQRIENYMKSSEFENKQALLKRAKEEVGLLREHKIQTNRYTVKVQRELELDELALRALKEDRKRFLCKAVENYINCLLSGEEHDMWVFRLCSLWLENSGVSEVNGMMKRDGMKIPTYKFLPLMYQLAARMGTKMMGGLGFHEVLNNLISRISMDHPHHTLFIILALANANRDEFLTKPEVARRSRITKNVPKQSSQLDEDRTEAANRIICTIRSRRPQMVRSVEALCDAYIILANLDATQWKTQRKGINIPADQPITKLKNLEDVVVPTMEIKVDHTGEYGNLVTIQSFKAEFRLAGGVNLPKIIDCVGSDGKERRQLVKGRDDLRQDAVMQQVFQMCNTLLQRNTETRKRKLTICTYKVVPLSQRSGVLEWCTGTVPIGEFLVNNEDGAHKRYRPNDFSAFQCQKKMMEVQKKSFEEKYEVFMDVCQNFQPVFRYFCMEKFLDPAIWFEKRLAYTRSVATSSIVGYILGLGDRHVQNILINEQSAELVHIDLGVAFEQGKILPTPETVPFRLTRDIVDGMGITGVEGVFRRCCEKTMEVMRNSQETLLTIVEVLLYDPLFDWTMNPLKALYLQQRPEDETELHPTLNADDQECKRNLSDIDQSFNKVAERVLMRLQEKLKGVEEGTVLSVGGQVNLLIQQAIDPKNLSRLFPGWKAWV

Row | SMILES | IC50 [nM]
1 | CN1C(=O)C2(CCC2)c2c1cnc1ccc(-c3cnc(OCCCN4CCNCC4)c(NS(C)(=O)=O)c3)cc21 [Example 300, N-(5-(3′-Methyl-2′-oxo-2′,3′-dihydrospiro[cyclobutane-1,1′-pyrrole[2,3-c]quinolin]-8′-yl)-2-(3-(piperazin-1-yl)propoxy)pyridin-3-yl) methanesulfonamide] | 1 to 100
2 | CN1C(=O)C2(CCC2)c2c1cnc1ccc(-c3cnc(OCCCN4CCCCC4)c(NS(=O)(=O)CF)c3)cc21 [Example 301, 1-Fluoro-N-(5-(3′-methyl-2′-oxo-2′,3′-dihydrospiro[cyclobutane-1,1′-pyrrolo[2,3-c]quinolin]-8-yl)-2-(3-(piperidin-1-yl)propoxy)pyridin-3-yl) methanesulfonamide] | 1 to 100
3 | CN1C(=O)C2(CCC2)c2c1cnc1ccc(-c3cnc(OCCCN4CC5CC(C4)O5)c(NS(C)(=O)=O)c3)cc21 [Example 303, N-(2-(3-(6-Oxa-3-azabicyclo[3.1.1]heptan-3-yl)propoxy)-5-(3′-methyl-2′-oxo-2′,3′-dihydrospiro[cyclobutane-1,1′-pyrrolo[2,3-c]quinolin]-8′-yl)pyridin-3-yl)methanesulfonamide] | > 100
4 | CN1C(=O)C2(CCC2)c2c1cnc1ccc(-c3cnc(OCCCN4CC(F)(F)C4)c(NS(C)(=O)=O)c3)cc21 [Example 307, N-(2-(3-(3,3-Difluoroazetidin-1-yl)propoxy)-5-(3′-methyl-2′-oxo-2′,3′-dihydrospiro[cyclobutane-1,1′-pyrrolo[2,3-c]quinolin]-8′-yl)pyridin-3-yl) methanesulfonamide formate] | > 100
5 | CCN1C(=O)C2(CCC2)c2c1cnc1ccc(-c3cnc(OCCNC)c(NS(C)(=O)=O)c3)cc21 [Example 308, N-(5-(3′-Ethyl-2′-oxo-2′,3′-dihydrospiro[cyclobutane-1,1′-pyrrolo[2,3-c]quinolin]-8′-yl)-2-(2-(methylamino)ethoxy)pyridin-3-yl) methanesulfonamide hydrochloride] | 1 to 100
6 | CN1C(=O)C2(CCC2)c2c1cnc1ccc(-c3cnc(OCC4CNC4)c(NS(C)(=O)=O)c3)cc21 [Example 310, N-(2-(Azetidin-3-ylmethoxy)-5-(3′-methyl-2′-oxo-2′,3′-dihydrospiro[cyclobutane-1,1′-pyrrole[2,3-c]quinolin]-8′-yl)pyridin-3-yl) methanesulfonamide hydrochloride] | > 100
7 | CN1C(=O)C2(CCC2)c2c1cnc1cc(F)c(-c3cnc(N4CC(N(C)C)C4)c(NS(=O)(=O)N4CCOCC4)c3)cc21 [Example 312, N-(2-(3-(Dimethylamino)azetidin-1-yl)-5-(7′-fluoro-3′-methyl-2′-oxo-2′,3′-dihydrospiro[cyclobutane-1,1′-pyrrolo[2,3-c]quinolin]-8′-yl)pyridin-3-yl)morpholine-4-sulfonamide hydrochloride] | 1 to 100
8 | CCN(C)C1CN(c2ncc(-c3cc4c5c(cnc4cc3F)N(C)C(=O)C53CCC3)cc2NS(C)(=O)=O)C1 [Example 313, N-(2-(3-(Ethyl(methyl)amino)azetidin-1-yl)-5-(7′-fluoro-3′-methyl-2′-oxo-2′,3′-dihydrospiro[cyclobutane-1,1′-pyrrolo[2,3-c]quinolin]-8′-yl)pyridin-3-yl)methanesulfonamide hydrochloride] | 1 to 100
9 | COCCN(C)C1CN(c2ncc(-c3cc4c5c(cnc4cc3F)N(C)C(=O)C53CCC3)cc2NS(C)(=O)=O)C1 [Example 314, N-(5-(7′-Fluoro-3′-methyl-2′-oxo-2′,3′-dihydrospiro[cyclobutane-1,1′-pyrrolo[2,3-c]quinolin]-8′-yl)-2-(3((2-methoxyethyl)(methyl)amino)azetidin-1-yl)pyridin-3-yl)methanesulfonamide hydrochloride] | 1 to 100
10 | CN1C(=O)C2(CCC2)c2c1cnc1ccc(-c3cnc(N4CC(N5CCCCC5)C4)c(NS(C)(=O)=O)c3)cc21 [Example 321, N-(5-(3′-Methyl-2′-oxo-2′,3′-dihydrospiro[cyclobulane-1,1′-pyrrolo[2,3-c]quinolin]-8′-yl)-2-(3-(piperidin-1-yl)azetidin-1-yl)pyridin-3-yl)methanesulfonamide hydrochloride] | 1 to 100
11 | CN1C(=O)C2(CCC2)c2c1cnc1cc(F)c(-c3cnc(N4CC(N(C)C)C4)c(NS(=O)(=O)c4ccccc4F)c3)cc21 [Example 322, N-(2-(3-(Dimethylamino)azetidin-1-yl)-5-(7′-fluoro-3′-methyl-2′-oxo-2′,3′-dihydrospiro[cyclobulane-1,1′-pyrrolo[2,3-c]quinolin]-8′-yl)pyridin-3-yl)-2-fluorobenzenesulfonamide hydrochloride] | 1 to 100
12 | CN1C(=O)C2(CCC2)c2c1c(N)nc1ccc(-c3cnc(N4CC(N(C)C)C4)c(NS(C)(=O)=O)c3)cc21 [Example 327, N-(5-(4′-Amino-3′-methyl-2′-oxo-2′,3′-dihydrospiro[cyclobutane-1,1′-pyrrolo[2,3-c]quinolin]-8′-yl)-2-(3-(dimethylamino)azetidin-1-yl)pyridin-3-yl)methanesulfonamide hydrochloride] | > 100
13 | CC(C)NC1CN(c2ncc(-c3cc4c5c(cnc4cc3F)N(C)C(=O)C53CCC3)cc2NS(C)(=O)=O)C1 [Example 328, N-(5-(7′-Fluoro-3′-methyl-2′-oxo-2′,3′-dihydrospiro[cyclobutane-1,1′-pyrrolo[2,3-c]quinolin]-8′-yl)-2-(3-(isopropylamino)azetidin-1-yl)pyridin-3-yl)methanesulfonamide hydrochloride] | 1 to 100
14 | Cc1cc2ncc3c(c2cc1-c1cnc(N2CC(N(C)C)C2)c(NS(C)(=O)=O)c1)C1(CCC1)C(=O)N3C [Example 335, N-(5-(3′-,7′-Dimethyl-2′-oxo-2′,3′-dihydrospiro[cyclobutane-1,1′-pyrrolo[2,3-c]quinolin]-8′-yl)-2-(3-(dimethylamino)azetidin-1-yl)pyridin-3-yl)methanesulfonamide] | 1 to 100
15 | CCN1C(=O)C2(CCC2)c2c1cnc1ccc(-c3cnc(N4CC(N(C)C)C4)c(NS(C)(=O)=O)c3)cc21 [Example 336, N-(2-(3-(Dimethylamino)azetidin-1-yl)-5-(3′-ethyl-2′-oxo-2′,3′-dihydrospiro [cyclobutane-1,1′-pyrrolo[2,3-c]quinolin]-8′-yl)pyridin-3-yl) methanesulfonamide] | 1 to 100

Same assay, conditions: pKAP1 in etoposide-treated MCF-7 cells

Row | SMILES | IC50 [nM]
16 | CCN1C(=O)C2(CCC2)c2c1cnc1ccc(-c3cnc(N4CC(N(C)C)C4)c(NS(=O)(=O)c4ccccc4)c3)cc21 [Example 337, N-(2-(3-(Dimethylamino)azetidin-1-yl)-5-(3′-ethyl-2′-oxo-2′,3′-dihydrospiro[cyclobutane-1,1′-pyrrolo[2,3-c]quinolin]-8′-yl)pyridin-3-yl)benzenesulfonamide] | 1 to 100
17 | CNS(=O)(=O)Nc1cc(-c2cc3c4c(cnc3cc2F)N(C)C(=O)C42CCC2)cnc1N1CC(N(C)C)C1 [Example 340, 8′-{6-[3-(Dimethylamino)azetidin-1-yl]-5-[(methylsulfamoyl)amino]pyridin-3-yl}-7′-fluoro-3′-methyl-2′,3′-dihydrospiro[cyclobutane-1,1′-pyrrolo[2,3-c]quinoline]-2′-one] | 1 to 100
